One assay concerns pulmonary fibroblasts. Nature of the assay: Collagen 1 and α-SMA immunoblotting in pulmonary fibroblasts. The class given is cell-based, human. The note with it: stearic acid 40 uM/mL. As for the experimental part: After epithelial cells and fibroblasts were aliquoted into 6-well plates at 2×10^4 cells/well and a stabilization time was imparted for 24 hours, and 15 hours after deficiency, cells were treated with stearic acid (40 uM/mL), TGF-β (5 ng/mL), and stearic acid (40 uM/mL)+TGF-β (5 ng/mL) in this order. After the cells were cultured in an incubator for 24 hours after the treatment, the next-step experiment was performed. After 24 hours of cell stimulation by the method of Example 1-3, the cells were washed twice with iced phosphate buffer saline (PBS), a protein lysate solution was put thereinto, the cells were scraped out and collected in a 1.5 ml EP tube, and then the cells were lysed in a grinder for 30 seconds. Next, centrifugation was performed at a speed of 14,000 rpm at 4° C. for 20 minutes, and the protein was quantified using the BCA analysis method. Thereafter, the protein sample was boiled at 95° C. for 10 minutes for the same amount of protein, and then the expression levels of collagen type 1 and α-SMA were measured by immunoblotting. After the expression level of the protein was confirmed, a significance test between samples was performed using a statistical program. […] The collagen 1/actin or α-SMA/actin indicated on the y-axis of FIGS. 4A and 4B means a value obtained by correcting the protein amount of collagen 1 or α-SMA with the amount of actin, which is an intracellular control protein. […] Further, referring to the test method of obtaining the results in FIG. 4, after pulmonary fibroblasts were treated with palmitic acid at various concentrations (10, 20, and 40 μM/mL), the levels of collagen 1 (collagen 1/actin; FIG. 6A) and α-SMA (α-SMA/actin; FIG. 6B), which are intracellular fibrosis markers, were measured, and shown as relative values to the control (CTL; medium only). […] 40 uM/mL stearic acid, 10 uM/mL palmitic acid, and 5 ng/mL TGF-β were used in the experiment, respectively. […] In addition, referring to the test method of obtaining the results in FIG. 7, the experiment was performed using oleic acid (OA) instead of palmitic acid, and the levels of collagen 1 (collagen 1/actin; FIG. 8A) and α-SMA (α-SMA/actin; FIG. 8B) were measured and shown as relative values to the control (CTL; medium only). 40 uM/mL stearic acid, 40 uM/mL oleic acid, and 5 ng/mL TGF-β were used in the experiment, respectively.
Background: A western blot detects proteins with antibodies after separation by electrophoresis.

Assay [1] has as its system primary fibroblasts isolated from lung tissues of patients with idiopathic pulmonary fibrosis. Nature of the assay: Collagen 1 and α-SMA expression in primary fibroblasts from IPF patients. The class given is cell-based, human. The settings on record: 80 μM stearic acid. As for the experimental part: In addition to the results in the Examples, the present inventors sought to verify the anti-fibrotic effect of stearic acid on fibroblasts derived from lung tissues in patients with idiopathic pulmonary fibrosis (IPF). For this purpose, after primary fibroblasts were isolated from lung tissues of the patients, and then the cells were treated with stearic acid at various concentrations for 24 hours, the expression levels of collagen 1 and α-SMA were measured (FIGS. 10A and 10B), fibroblasts obtained from 4 patients were treated with 80 μM stearic acid for 24 hours, and then the expression levels of collagen 1 and α-SMA were measured (FIG. 10C). In addition, after the expression of collagen type 1 and α-SMA was increased by inducing the fibrosis caused by TGF-β1 in patient-derived fibroblasts, the anti-fibrotic effect of stearic acid was verified (FIGS. 10D and 10E).

Assay [2] concerns Beas-2B human pulmonary epithelial cell line. Briefly: E-cadherin expression in epithelial cells. Type of assay: cell-based. The note with it: 40 μM stearic acid, 24 h. How it is done: The present inventors examined the expression level of E-cadherin after treating Beas-2B, which is a human pulmonary epithelial cell line, with TGF-β1 and/or 40 μM stearic acid for 24 hours in order to examine the effects of stearic acid on epithelial cells. As a result, as illustrated in FIGS. 11A and 11B, it was confirmed that when Beas-2B was treated with 40 μM stearic acid, the expression of E-cadherin reduced by TGF-β1 was restored in Beas-2B cells. […] It was confirmed in FIG. 3B that when epithelial cells are treated with TGF-β1, the proliferation of epithelial cells was inhibited and the proliferation of epithelial cells was restored by stearic acid.

Setting [3] is: increase by oleic acid 40 uM/mL.
[4] abbreviates: increase by palmitic acid 10 uM/mL.
Setting [5] is: primary fibroblasts from 4 patients with IPF, 24 h (FIG. 10C).

As to `CCCCCCCCCCCCCCCCCC(=O)O` [stearic acid], in the assay with pulmonary fibroblasts (increase by TGF-β 5 ng/mL), the “collagen 1/actin” value is “significantly inhibited” and the α-SMA/actin entry is reported as “significantly inhibited”. In the assay on pulmonary fibroblasts (setting [3]), the “collagen 1/actin” value is on record as “significantly inhibited” and the α-SMA/actin result is given as “significantly inhibited”. In the assay with pulmonary fibroblasts (setting [4]), the “collagen 1/actin” value was “significantly inhibited” and the α-SMA/actin result is “significantly inhibited”. Moreover, in assay [1] (24 h (FIGS. 10A, 10B)), the “basal level expression of collagen 1” value is “significantly reduced” and the “basal level expression of α-SMA” value is reported as “significantly reduced”. Moreover, in assay [1] (fibrosis induced by TGF-β1), the “expression of collagen 1” value is recorded as “significantly reduced” and the “expression of α-SMA” value is reported as “significantly reduced”. Moreover, in assay [1] (setting [5]), the “basal level expression of collagen 1” value was “significantly reduced” and the “basal level expression of α-SMA” value is given as “significantly reduced”. The “expression of E-cadherin reduced by TGF-β1” value in assay [2] is listed as “restored”.
